# According to patent US11351178B2, “Selective HDAC6 inhibitors” (ITALFARMACO S.P.A., priority 2017, dated 2022):
# Columns and labels:
# [1] = biological target: T1, recombinant human HDAC6 (Homo sapiens, UniProt Q9UBN7); assay: Enzymatic screening on recombinant human HDAC6; type: biochemical; conditions: Table 2; read-out: HDAC6 IC50
# T1 sequence (Q9UBN7 1-1215): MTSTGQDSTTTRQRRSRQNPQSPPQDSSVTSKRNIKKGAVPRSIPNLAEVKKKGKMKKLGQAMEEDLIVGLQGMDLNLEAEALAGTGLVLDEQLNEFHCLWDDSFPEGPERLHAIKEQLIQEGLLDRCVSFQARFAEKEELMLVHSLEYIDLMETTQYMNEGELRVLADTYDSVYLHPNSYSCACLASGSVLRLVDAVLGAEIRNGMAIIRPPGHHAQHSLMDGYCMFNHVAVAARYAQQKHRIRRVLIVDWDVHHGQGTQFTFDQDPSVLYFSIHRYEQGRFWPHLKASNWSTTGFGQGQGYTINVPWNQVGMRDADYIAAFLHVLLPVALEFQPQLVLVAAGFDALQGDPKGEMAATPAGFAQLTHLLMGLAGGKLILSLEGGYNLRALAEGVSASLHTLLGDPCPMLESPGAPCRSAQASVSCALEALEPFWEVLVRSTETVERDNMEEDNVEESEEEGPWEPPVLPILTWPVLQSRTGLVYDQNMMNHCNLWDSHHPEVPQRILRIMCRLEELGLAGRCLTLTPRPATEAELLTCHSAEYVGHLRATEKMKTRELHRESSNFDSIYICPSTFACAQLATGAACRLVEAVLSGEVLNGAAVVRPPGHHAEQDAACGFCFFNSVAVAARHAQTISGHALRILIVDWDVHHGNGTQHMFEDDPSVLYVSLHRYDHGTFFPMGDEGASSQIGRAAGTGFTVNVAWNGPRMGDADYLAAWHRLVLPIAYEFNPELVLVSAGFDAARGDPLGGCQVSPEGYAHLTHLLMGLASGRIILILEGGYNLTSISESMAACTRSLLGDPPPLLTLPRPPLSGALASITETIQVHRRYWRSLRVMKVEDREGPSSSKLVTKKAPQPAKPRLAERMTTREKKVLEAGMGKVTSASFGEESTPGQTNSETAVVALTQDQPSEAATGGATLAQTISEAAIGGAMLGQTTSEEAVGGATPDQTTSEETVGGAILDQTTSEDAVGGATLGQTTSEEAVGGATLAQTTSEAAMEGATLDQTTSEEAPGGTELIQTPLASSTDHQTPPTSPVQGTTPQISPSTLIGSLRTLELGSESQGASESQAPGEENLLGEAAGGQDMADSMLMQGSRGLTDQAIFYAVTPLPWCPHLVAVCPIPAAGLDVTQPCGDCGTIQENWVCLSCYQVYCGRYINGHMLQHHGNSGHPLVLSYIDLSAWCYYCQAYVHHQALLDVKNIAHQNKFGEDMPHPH
# In short: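 Recombinant human HDAC isoforms were incubated with compound at 30 °C for isoform-specific times. Fluor de Lys, Fluor de Lys-Green or trifluoroacetyl-lysine substrate in Tris-HCl pH 8 buffer with NaCl, Tween-20 and glycerol was then added, followed by reaction at 30 °C.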
# [2] = test system: B 697 promyelocytic cell line; assay: Cytotoxicity on 697 cell line (CellTiter 96); type: cell-based; conditions: 72 hours incubation, read-out: 697 TOXICITY
# Protocol: Cytotoxic activity was evaluated on B 697 […] cell line for all synthesized compounds and on peripheral blood mononuclear cells (PBMCs) for compounds showing a good potency/selectivity profile.
# Cells were seeded in plate (2×10^4 cells per well for 697, 5×10^5 cells per well for PBMCs). The test compounds (concentrations from 1.5 nM to 10000 nM for PBMCs and from 1 nM to 10000 nM for 697) were added after 24 hours and incubated 72 hours. The molecules cytotoxic activity was evaluated using CellTiter 96© Aqueous One Solution Cell Proliferation Assay (Promega), which measures the mitochondria function, following the manufacturer's instructions.
# [3] = Stability to Phase I metabolism in rat S9 liver fraction; type: in vitro ADME; conditions: after 90 min, 37° C.
# In short: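 Phase I stability in human and rat hepatic S9 at 37 °C, sampled up to 90 min. Samples were stopped with acidified acetonitrile on ice, then quantified by HPLC-UV or LC-MS/MS.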
# [4] = Stability in rat plasma; type: in vitro ADME; conditions: after 4 hours, 37° C.
# In short: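 Compounds incubated at 37° C in rat or human plasma at 50 μM (UV/HPLC) or 1 or 2 μM (LC-MS/MS) for 0–4 h. Reaction stopped with acidified acetonitrile on ice; percent remaining versus initial amount and plasma half-life calculated.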
SMILES,IC50 [1] [nM],IC50 [2] [nM],residual percentage in rat S9 fraction [3] [%],residual percentage in rat plasma [4] [%]
"Cn1c(Sc2c(F)cc(C(=O)NO)cc2F)nnc1C(C)(C)c1ccccc1 [comp. 4, 3,5-difluoro-N-hydroxy-4-((4-methyl-5-(2-phenylpropan-2-yl)-4H-1,2,4-triazol-3-yl)thio)benzamide]",20,> 10000,34,106
"O=C(NO)c1cc(F)c(Cn2nnnc2-c2scc3c2OCCO3)c(F)c1 [comp. 5, 4-((5-(2,3-dihydrothieno[3,4-b][1,4]dioxin-5-yl)-1H-tetrazol-1-yl)methyl)-3,5-difluoro-N-hydroxybenzamide]",17,88700,36,97
"O=C(NO)c1ccc(Cn2nnc(-c3ccco3)n2)cc1 [comp. 12, 4-((5-(furan-2-yl)-2H-tetrazol-2-yl)methyl)-N-hydroxybenzamide]",4,> 10000,44,87
"O=C(NO)c1cc(F)c(Cn2nnnc2-c2nccc3ccccc23)c(F)c1 [comp. 94, 3,5-difluoro-4-[[5-(1-isoquinolyl)tetrazol-1-yl]methyl]benzenecarbohydroxamic acid]",7,908,22,75
"Cn1c(Sc2c(F)cc(C(=O)NO)cc2F)nnc1-c1nccc2ccccc12 [comp. 121, 3,5-difluoro-4-[[5-(1-isoquinolyl)-4-methyl-1,2,4-triazol-3-yl]sulfanyl]benzenecarbohydroxamic acid]",12,5910,25,100
"Cn1c(Sc2c(F)cc(C(=O)NO)cc2F)nnc1-c1ccc2ccccc2n1 [comp. 122, 3,5-difluoro-4-[[4-methyl-5-(2-quinolyl)-1,2,4-triazol-3-yl]sulfanyl]benzenecarbohydroxamic acid]",12,1030,47,94
"O=C(NO)c1ccc(Cn2nnc(-c3ncccn3)n2)cc1 [comp. 123, 4-[(5-pyrimidin-2-yltetrazol-2-yl)methyl]benzenecarbohydroxamic acid]",8,1970,99,99
"O=C(NO)c1cc(F)c(Cn2nnnc2-c2ccc(C(F)(F)F)cn2)c(F)c1 [comp. 129, 3,5-difluoro-4-[[5-[5-(trifluoromethyl)-2-pyridyl]tetrazol-1-yl]methyl]benzenecarbohydroxamic acid]",13,13200,45,93
"O=C(NO)c1cc(F)c(Cn2nnc(Cc3ccccn3)n2)c(F)c1.O=C(O)C(F)(F)F [comp. 134, 3,5-difluoro-4-[[5-(2-pyridylmethyl)tetrazol-2-yl]methyl]benzenecarbohydroxamic acid;2,2,2-trifluoroacetic acid]",10,> 10000,95,76
"O=C(NO)c1cc(F)c(Sc2nnc(CN3CCCC3)n2Cc2ccccc2)c(F)c1 [comp. 141, 4-[[4-benzyl-5-(pyrrolidin-1-yl-methyl)-1,2,4-triazol-3-yl]sulfanyl]-3,5-difluoro-benzenecarbohydroxamic acid]",25,> 10000,36,73
"O=C(NO)c1cc(F)c(Sc2nnc(-c3ccncc3)n2Cc2ccco2)c(F)c1 [comp. 146, 3,5-difluoro-4-[[4-(2-furylmethyl)-5-(4-pyridyl)-1,2,4-triazol-3-yl]sulfanyl]benzenecarbohydroxamic acid]",20,> 10000,59,–
"O=C(NO)c1cc(F)c(Sc2nnc(-c3cccnc3)n2Cc2ccco2)c(F)c1 [comp. 147, 3,5-difluoro-4-[[4-(2-furylmethyl)-5-(3-pyridyl)-1,2,4-triazol-3-yl]sulfanyl]benzenecarbohydroxamic acid]",16,> 10000,76,89
"Cn1c(Sc2c(F)cc(C(=O)NO)cc2F)nnc1-c1cnc2ccccn12 [comp. 149, 3,5-difluoro-4-[(5-imidazo[1,2-a]pyridin-3-yl-4-methyl-1,2,4-triazol-3-yl)sulfanyl]benzenecarbohydroxamic acid]",11,794,84,–
"Cn1c(Sc2c(F)cc(C(=O)NO)cc2F)nnc1C1(c2ccccc2)CCN(Cc2ccccc2)CC1 [comp. 150, 4-[[5-(1-benzyl-4-phenyl-4-piperidyl)-4-methyl-1,2,4-triazol-3-yl]sulfanyl]-3,5-difluoro-benzenecarbohydroxamic acid]",24,1260,35,92
"CN1CCN(S(=O)(=O)c2cccc(-c3nnc(Sc4c(F)cc(C(=O)NO)cc4F)n3C)c2)CC1 [comp. 151, 3,5-difluoro-4-[[4-methyl-5-[3-(4-methylpiperazin-1-yl)sulfonylphenyl]-1,2,4-triazol-3-yl]sulfanyl]benzenecarbohydroxamic acid]",9,287,62,87
"Cn1c(Sc2c(F)cc(C(=O)NO)cc2F)nnc1-c1cccc(S(=O)(=O)N2CCN(Cc3ccccc3)CC2)c1 [comp. 152, 4-[[5-[3-(4-benzylpiperazin-1-yl)sulfonylphenyl]-4-methyl-1,2,4-triazol-3-yl]sulfanyl]-3,5-difluoro-benzenecarbohydroxamic acid]",22,1450,31,113
"O=C(O)c1cccc(-c2nnn(Cc3ccc(C(=O)NO)cc3)n2)c1 [comp. 163, 3-[2-[[4-(hydroxycarbamoyl)phenyl]methyl]tetrazol-5-yl]benzoic acid]",12,49000,–,–
"Nc1ccc(-c2nnnn2Cc2ccc(C(=O)NO)cc2)cc1 [comp. 170, 4-[[5-(4-aminophenyl)tetrazol-1-yl]methyl]benzenecarbohydroxamic acid]",8,61400,–,–
"NCc1ccc(-c2nnnn2Cc2ccc(C(=O)NO)cc2)cc1 [comp. 174, 4-[[5-[4-(aminomethyl)phenyl]tetrazol-1-yl]methyl]benzenecarbohydroxamic acid]",129,50300,–,–
"COc1ccc(Cc2nnc(-c3cccs3)n2Cc2ccc(C(=O)NO)cc2)cc1OC [comp. 185, 4-[[3-[(3,4-dimethoxyphenyl)methyl]-5-(2-thienyl)-1,2,4-triazol-4-yl]methyl]benzenecarbohydroxamic acid]",1000,10400,–,–
"O=C(NO)c1ccc(Cn2c(Cc3c[nH]c4ccccc34)nnc2-c2cccs2)cc1 [compound 183, 4-((3-((1H-indol-3-yl)methyl)-5-(thiophen-2-yl)-4H-1,2,4-triazol-4-yl)methyl)-N-hydroxybenzamide]",212,50300,–,–
